Experimental data taken from patent US9738656B2, “Pyranodipyridine compound” (Eisai R&D Management Co., Ltd., priority 2015, dated 2017).
Like-named read-outs stand apart in the source and are kept apart here.

Legend:
[1] = system: male ddY mice; experiment: Rotarod performance test-1; assay type: in vivo; conditions: oral, 25 minutes after administration, dose at which time of fall is reduced to 50% of medium control
Description: (§1) With regard to the AMPA receptor inhibitory action of the compounds, AMPA-induced intraneuronal calcium entry-suppressing action was examined using a primary culture system of embryonic rat cerebral cortex neurons. […] AMPA inhibitor-induced central nervous system depressant action such as loss of coordination was evaluated using a rotarod performance test.
Rotarod Performance Test-1
(§2) A rotarod (MK-660C from Muromachi Kikai Co., Ltd.) was used for the measurement. The rod (bar) was controlled to be gradually accelerated from its stationary state to a speed of 40 rotations/minute after 180 seconds. As the animals, 5 or 6-week-old male ddY mice (Japan SLC, Inc.) were used. On the day on which the test was performed, the mice were trained under the above-described measurement conditions, and mice that were able to ride on the rod for 1 minute or longer with good reproducibility were selected and subjected to the test.
Each of the compounds was dissolved in a medium (a solution prepared by adding DMSO to a 0.5% methylcellulose solution to a final concentration of 10%. As required, 0.5 to 5% of 1 mol/L hydrochloric acid and 5% Cremophor™ were added), and then orally administered to the mice in optimum four doses between 0.5 to 10 mg/kg. As the control, only the medium was orally administered. After a lapse of 25 minutes from the oral administration of each compound, the mice were subjected to the rotarod performance test. Five to twenty-five mice were used for each compound group.

[2] = system: AMPA receptor; experiment: AMPA-induced intraneuronal calcium entry-suppressing action (primary culture of embryonic rat cerebral cortex neurons, Fura 2-AM); assay type: cell-based; conditions: AMPA stimulation, intracellular calcium increase, read-out: IC50 for AMPA inhibition
From the text: The present inventors conducted the following tests, in order to confirm the effects of the compounds of the present invention. With regard to the AMPA receptor inhibitory action of the compounds, AMPA-induced intraneuronal calcium entry-suppressing action was examined using a primary culture system of embryonic rat cerebral cortex neurons. With regard to the anticonvulsant action of the compounds, 6 Hz (44 mA) stimulation-induced convulsions known as a treatment-resistant convulsion model were used. AMPA inhibitor-induced central nervous system depressant action such as loss of coordination was evaluated using a rotarod performance test.
AMPA-Induced Intraneuronal Calcium Entry-Suppressing Action
<Culture conditions> Whole fetuses were removed from the uteri of Wistar rats at embryonic day 18 (Charles River Japan) anesthetized with isoflurane. Whole brains were removed from the whole fetuses, and the cerebral cortex was separated in Leibovitz's L-15 medium or Hanks balanced salt solution containing 20% fetal bovine serum. The resulting material was treated with trypsin/DNase solution at 37° C. for 45 to 60 minutes. After the serum was added to stop the trypsin reaction, the resulting material was centrifuged at 1200 to 1500 rpm for 3 to 5 minutes. After the supernatant was removed, Neurobasal medium (containing 2% B-27 supplement and the like; hereinafter “Neurobasal medium”) was added, and the cells were uniformly dispersed by gently pipetting. The cell suspension was slightly stirred, and then filtered through a nylon mesh filter. Viable cells were counted using a hemocytometer, and diluted with Neurobasal medium to 8 to 10×10^5 cells/mL. The cells were seeded into 96 well plates at 100 μL per well and cultured in a CO2 incubator (5% CO2, 37° C.). The medium was replaced after 24 hours, and neurons cultured for 7 to 21 days were used.
On the day of the assay, the medium was removed and replaced with a calcium measurement solution containing 5 to 10 μmol/L of Fura 2-AM (140 mmol/L sodium chloride, 5 mmol/L potassium chloride, 2 mmol/L magnesium chloride, 3 mmol/L calcium chloride, 24 mmol/L D(+)-glucose, 10 mmol/L HEPES, 1 μmol/L MK-801, pH 7.4), and the cells were treated in a CO2 incubator (5% CO2, 37° C.) for 1 to 2 hours. The calcium measurement solution containing the Fura-2 AM solution was subsequently removed, and the neurons in each well were washed twice with the calcium measurement solution for each well, and then 50 μL of the calcium measurement solution was added to each well. Subsequently, 50 μL of a test compound or medium prepared at a concentration 3-fold higher than the final concentration was added, and the cells were pre-treated for about 15 minutes. The plates were subsequently placed on the Fluorescence Drug Screening System 6000 (Hamamatsu Photonics K.K.). The cells were stimulated by adding to each well 50 μL of an AMPA stimulating solution prepared to 3.3 μmol/L with the calcium measurement solution. Changes in calcium concentration were measured as the changes in fluorescence intensity at excitation wavelengths of 340 nm and 380 nm (measurement wavelength: 540 nm). The rate of change of the intracellular calcium concentration was calculated according to the following equation: Rate of increase of the intracellular calcium concentration (% control)=(Tpost−Tpre)/(Cpost−Cpre)×100
wherein Tpost: the proportion of fluorescence of sample wells after stimulation; Tpro: the proportion of fluorescence of sample wells before stimulation; Cpost: the proportion of fluorescence of control wells after stimulation; and Cpre: the proportion of fluorescence of control wells before stimulation.
The IC50 value of the test compound for AMPA inhibition was determined from the rates of increase of the intracellular calcium concentration at various concentrations.

[3] = system: male ddY mice; experiment: Rotarod performance test-2; assay type: in vivo; conditions: for Time of Fall: mice, oral at the ED50 dose of the 6 Hz model, 25 minutes after administration; for Ratio Relative to the Control Compound: time of fall relative to control compound
Description: Rotarod Performance Test-2
as §2
As the control, only the medium was orally administered. After a lapse of 25 minutes from the oral administration of each compound, the mice were subjected to the rotarod performance test. Five or six mice were used for each compound group. For each compound, the time until the mice fell from the rotarod was measured.

[4] = system: male ddY mice; experiment: Murine 6 Hz convulsion models (6 Hz, 44 mA corneal stimulation); assay type: in vivo; conditions: for ED50: Mus musculus, 25 min; for Therapeutic Index: TD50/ED50 (rotarod test-1 / 6 Hz convulsion model)
Description: as §1
Immediately after the rotarod performance test-1 was completed, the cornea was stimulated by passing an electrical current (6 Hz, 44 mA, 0.2-millisecond pulse, for 3 seconds) from a copper electrode moistened with physiological saline, and the presence or absence of the development of a seizure was observed. The seizure was determined by the development of akinesia, jaw and forelimb clonus, whisker tremors, and Straub tail.
Further, for the purpose of evaluating the safety margin of each of the compounds of the present invention, the therapeutic index (TD50/ED50) was calculated by comparing the seizure inhibitory action (ED50) in the 6 Hz convulsion models and the neurotoxic action (TD50) in the rotarod performance test-1.

[5] = mice, 6 Hz 44 mA stimulation-induced seizure, oral, after rotarod test-1 (25 minutes after administration), read-out: ED50

For `Cc1ccc(-n2c3c(cc(-c4cccc(F)c4C#N)c2=O)-c2ncccc2OC3)cn1` [Example 3, 2-fluoro-6-(7-(6-methylpyridin-3-yl)-8-oxo-7,8-dihydro-6H-pyrano[3,2-b:5,4-b′]dipyridin-9-yl)benzonitrile], the TD50 [1] was 2.47 mg/kg, p.o, the IC50 [2] was 10.4 nM and the “Time of Fall” value ([3]; Table 3) was 124.7 s. For the same compound, the “Ratio Relative to the Control Compound” value ([3]; Table 3) was 10.2, the ED50 ([4]; po) was 1.21 mg/kg and the “Therapeutic Index” value ([4]; mice) was 2.04.
For `O=c1c(-c2cccc(F)c2Cl)cc2c(n1-c1cncc(F)c1)COc1cccnc1-2` [Example 17, 9-(2-chloro-3-fluorophenyl)-7-(5-fluoropyridin-3-yl)-6H-pyrano[3,2-b:5,4-b′]dipyridin-8(7H)-one], the TD50 [1] was 4.27 mg/kg, p.o, the IC50 [2] was 17.7 nM and the “Time of Fall” value ([3]; Table 4) was 147.0 s. For the same compound, the “Ratio Relative to the Control Compound” value ([3]; Table 4) was 10.3, the ED50 ([4]; po) was 2 mg/kg and the “Therapeutic Index” value ([4]; mice) was 2.14.
For `Cc1ncc(-n2c3c(cc(-c4cccc(F)c4C#N)c2=O)-c2ncccc2OC3)cn1` [Example 21, 2-fluoro-6-(7-(2-methylpyrimidin-5-yl)-8-oxo-7,8-dihydro-6H-pyrano[3,2-b:5,4-b′]dipyridin-9-yl)benzonitrile], the TD50 [1] was 5.30 mg/kg, p.o, the IC50 [2] was 44.3 nM and the “Time of Fall” value ([3]; Table 4) was 118.7 s. For the same compound, the “Ratio Relative to the Control Compound” value ([3]; Table 4) was 8.3, the ED50 [4, 5] was 2.5 mg/kg and the “Therapeutic Index” value ([4]; mice) was 2.12.
In the case of `N#Cc1ncccc1-c1cc2c(n(-c3ccccc3)c1=O)COc1cc(F)cnc1-2` [Example 13, 3-(3-fluoro-8-oxo-7-phenyl-7,8-dihydro-6H-pyrano[3,2-b:5,4-b′]dipyridin-9-yl)picolinonitrile], the TD50 [1] is reported as 3.89 mg/kg, p.o, the IC50 [2] is reported as 67.5 nM and the “Time of Fall” value ([3]; Table 3) is reported as 84.8 s. The “Ratio Relative to the Control Compound” value ([3]; Table 3) was 7.0, the ED50 ([4]; po) was 2.25 mg/kg and the “Therapeutic Index” value ([4]; mice) was 1.73.
In the case of `Cc1ccc(-n2c3c(cc(-c4cccc(F)c4Cl)c2=O)-c2ncccc2OC3)cn1` [Example 4, 9-(2-chloro-3-fluorophenyl)-7-(6-methylpyridin-3-yl)-6H-pyrano[3,2-b:5,4-b′]dipyridin-8(7H)-one], the TD50 [1] is reported as 3.90 mg/kg, p.o, the IC50 [2] is reported as 28.3 nM and the “Time of Fall” value ([3]; Table 3) is reported as 73.2 s. For the same compound, the “Ratio Relative to the Control Compound” value ([3]; Table 3) was 6.0, the ED50 ([4]; po) was 2.33 mg/kg and the “Therapeutic Index” value ([4]; mice) was 1.67.
In the case of `N#Cc1ncccc1-c1cc2c(n(-c3ccc(F)cc3)c1=O)COc1cccnc1-2` [Example 11, 3-(7-(4-fluorophenyl)-8-oxo-7,8-dihydro-6H-pyrano[3,2-b:5,4-b′]dipyridin-9-yl)picolinonitrile], the TD50 [1] is reported as 5.05 mg/kg, p.o, the IC50 [2] is reported as 26.3 nM and the “Time of Fall” value ([3]; Table 3) is reported as 114.7 s. The “Ratio Relative to the Control Compound” value ([3]; Table 3) was 9.4, the ED50 [4, 5] was 1.69 mg/kg and the “Therapeutic Index” value ([4]; mice) was 2.99.
